# Experimental data taken from patent US20230146795A1, “ENHANCEMENT OF ANTI-TUMOR ACTIVITY OF SHP2 INHIBITOR PYRIMIDINONE IN COMBINATION WITH NOVEL CANCER MEDICINES IN CANCERS” (TAIHO PHARMACEUTICAL CO., LTD., priority 2020, published 2023).
# Columns and labels:
# Assay type in all cases: cell-based
# [1] = system: NCI-H358; test: Anti-proliferation assay (CellTiter-Glo 2.0), combination index, NCI-H358
# Protocol: (§1) Cell lines were obtained from ATCC or Health Science Research Resources Bank.
# (§2) Each cell lines were collected by ordinary method, then suspended in indicated medium containing 10% fetal bovine serum in table 3. The number of cells seeded per well was set to 500 cells/20 μL. […] The concentration of each anti-cancer reagents set to 8 concentrations including 0 nM. After adding the medicine to the cells, the cells were further incubated at 37° C. for 3 days under 5% CO2. Cell survival rates were calculated by adding 20 μL of CellTiter-Glo(registered trademark) 2. 0 (Promega) solution to each well, incubating the cells at room temperature for 10 minutes, and then measuring the chemiluminescence intensity of each well using a plate reader (ARVO).
# (§3) A combination index (CI) value at each combined concentration of the medicines was determined.
# [2] = system: MKN45; test: Anti-proliferation assay (CellTiter-Glo 2.0), combination index, MKN45; details: for Description: combination effect
# Protocol: as §1, §2, §3
# [3] = system: RT4; test: Anti-proliferation assay (CellTiter-Glo 2.0), combination index, RT4; details: for Description: combination effect
# Protocol: as §1, §2, §3
# [4] = Compound 1 41.2 + combination drug 370 nmol/L (1:9)
# [5] = Compound 1 123 + combination drug 1110 nmol/L (1:9)
# [6] = Compound 1 370 + combination drug 3330 nmol/L (1:9)
# [7] = Compound 1 1110 + combination drug 10000 nmol/L (1:9)
# [8] = Compound 1:combination drug molar ratio 1:9
# [9] = Compound 1 13.7 + combination drug 370 nmol/L (1:27)
# [10] = Compound 1 41.2 + combination drug 1110 nmol/L (1:27)
# [11] = Compound 1 123 + combination drug 3330 nmol/L (1:27)
# [12] = Compound 1 370 + combination drug 10000 nmol/L (1:27)
# [13] = Compound 1 1.52 + combination drug 123 nmol/L (1:81)
# [14] = Compound 1 13.7 + combination drug 1110 nmol/L (1:81)
# [15] = Compound 1 41.2 + combination drug 3330 nmol/L (1:81)
# [16] = Compound 1 123 + combination drug 10000 nmol/L (1:81)
# [17] = Compound 1 4.57 + combination drug 41.2 nmol/L (1:9)
# [18] = Compound 1 13.7 + combination drug 123 nmol/L (1:9)
# [19] = Compound 1 41.2 nmol/L + Cisplatin 1110 nmol/L, molar ratio 1:27
# [20] = Compound 1 123 nmol/L + Cisplatin 3330 nmol/L, molar ratio 1:27
# [21] = Compound 1 370 nmol/L + Cisplatin 10000 nmol/L, molar ratio 1:27
# [22] = Compound 1 4.57 nmol/L + Cisplatin 370 nmol/L, molar ratio 1:81
# [23] = Compound 1 13.7 nmol/L + Cisplatin 1110 nmol/L, molar ratio 1:81
# [24] = Compound 1 123 + combination drug 41.2 nmol/L (1:0.3)
# [25] = Compound 1 370 + combination drug 123 nmol/L (1:0.3)
# [26] = Compound 1 1110 + combination drug 370 nmol/L (1:0.3)
# [27] = Compound 1 3330 + combination drug 1110 nmol/L (1:0.3)
# [28] = Compound 1 10000 + combination drug 3330 nmol/L (1:0.3)
# [29] = Compound 1 123 nmol/L + FTD 3330 nmol/L, molar ratio 1:27
# [30] = Compound 1 370 nmol/L + FTD 10000 nmol/L, molar ratio 1:27
# [31] = Compound 1 370 nmol/L + FTD 123 nmol/L, molar ratio 1:0.3
# [32] = Compound 1 1110 nmol/L + FTD 370 nmol/L, molar ratio 1:0.3
# [33] = Compound 1 3330 nmol/L + FTD 1110 nmol/L, molar ratio 1:0.3
# [34] = Compound 1 12.3 nmol/L + Paclitaxel 1.46 nmol/L, molar ratio 1:0.1
# [35] = Compound 1 37.0 nmol/L + Paclitaxel 4.39 nmol/L, molar ratio 1:0.1
# [36] = Compound 1 111 nmol/L + Paclitaxel 13.2 nmol/L, molar ratio 1:0.1
# [37] = Compound 1 333 nmol/L + Paclitaxel 39.5 nmol/L, molar ratio 1:0.1
# [38] = Compound 1 1000 nmol/L + Paclitaxel 119 nmol/L, molar ratio 1:0.1
# [39] = Compound 1 4.12 nmol/L + Paclitaxel 0.14 nmol/L, molar ratio 1:0.03
# [40] = Compound 1 12.3 nmol/L + Paclitaxel 0.41 nmol/L, molar ratio 1:0.03
# [41] = Compound 1 37.0 nmol/L + Paclitaxel 1.23 nmol/L, molar ratio 1:0.03
# [42] = Compound 1 111 nmol/L + Paclitaxel 3.70 nmol/L, molar ratio 1:0.03
# [43] = Compound 1 333 nmol/L + Paclitaxel 11.1 nmol/L, molar ratio 1:0.03
# [44] = Compound 1 1000 nmol/L + Paclitaxel 33.3 nmol/L, molar ratio 1:0.03
# [45] = Compound 1 41.2 nmol/L + SN-38 2.06 nmol/L, molar ratio 1:0.05
# [46] = Compound 1 123 nmol/L + SN-38 6.17 nmol/L, molar ratio 1:0.05
# [47] = Compound 1 370 nmol/L + SN-38 18.5 nmol/L, molar ratio 1:0.05
# [48] = Compound 1 1110 nmol/L + SN-38 55.6 nmol/L, molar ratio 1:0.05
# [49] = Compound 1 4.57 nmol/L + SN-38 0.69 nmol/L, molar ratio 1:0.1
# [50] = Compound 1 13.7 nmol/L + SN-38 2.06 nmol/L, molar ratio 1:0.1
# [51] = Compound 1 41.2 nmol/L + SN-38 6.17 nmol/L, molar ratio 1:0.1
# [52] = Compound 1 123 nmol/L + SN-38 18.5 nmol/L, molar ratio 1:0.1
# [53] = Compound 1 370 nmol/L + SN-38 55.6 nmol/L, molar ratio 1:0.1
# [54] = Compound 1 1110 nmol/L + SN-38 167 nmol/L, molar ratio 1:0.1
# [55] = Compound 1 3330 nmol/L + SN-38 500 nmol/L, molar ratio 1:0.1
compound,measurement,setting,value
Cc1nc(NC(=O)N2CCC[C@H]2C(N)=O)sc1-c1ccnc(C(C)(C)C(F)(F)F)c1 [Alpelisib],CI,[1]; [4],0.451
same,Fa,[1]; [4],0.1532
same,CI,[1]; [5],0.356
same,Fa,[1]; [5],0.4353
same,CI,[1]; [6],0.589
same,Fa,[1]; [6],0.5959
same,CI,[1]; [7],0.844
same,Fa,[1]; [7],0.7671
same,Description (combinatory effect by CI),[1]; [8],Synergy (0.3-0.7)
same,CI,[2]; [9],0.700
same,Fa,[2]; [9],0.1253
same,CI,[2]; [10],0.426
same,Fa,[2]; [10],0.4108
same,CI,[2]; [11],0.655
same,Fa,[2]; [11],0.5920
same,CI,[2]; [12],0.772
same,Fa,[2]; [12],0.8141
same,Description (combinatory effect by CI),[2]; Compound 1:combination drug molar ratio 1:27,Synergy (0.3-0.7)
same,CI,[3]; [13],0.255
same,Fa,[3]; [13],0.0658
same,CI,[3]; [14],0.247
same,Fa,[3]; [14],0.2690
same,CI,[3]; [15],0.318
same,Fa,[3]; [15],0.4427
same,CI,[3]; [16],0.528
same,Fa,[3]; [16],0.5855
Cn1cnc2c(F)c(Nc3ccc(Br)cc3F)c(C(=O)NOCCO)cc21 [Binimetinib],CI,[1]; [17],0.883
same,Fa,[1]; [17],0.0312
same,CI,[1]; [18],0.223
same,Fa,[1]; [18],0.1821
same,CI,[1]; [4],0.196
same,Fa,[1]; [4],0.3954
same,CI,[1]; [5],0.222
same,Fa,[1]; [5],0.6241
same,CI,[1]; [6],0.349
same,Fa,[1]; [6],0.7635
same,CI,[1]; [7],0.673
same,Fa,[1]; [7],0.8387
same,CI,[2]; [18],0.630
same,Fa,[2]; [18],0.2390
same,CI,[2]; [4],0.387
same,Fa,[2]; [4],0.5003
same,CI,[2]; [5],0.212
same,Fa,[2]; [5],0.7765
same,CI,[2]; [6],0.360
same,Fa,[2]; [6],0.8408
N.N.[Cl][Pt][Cl] [Cisplatin],CI,[2]; [19],0.694
same,Fa,[2]; [19],0.2057
same,CI,[2]; [20],0.626
same,Fa,[2]; [20],0.5148
same,CI,[2]; [21],0.681
same,Fa,[2]; [21],0.8006
same,Description,"[2]; Compound 1 + Cisplatin, molar ratio 1:27",Synergy (0.3-0.7)
same,CI,[3]; [22],0.632
same,Fa,[3]; [22],0.0886
same,CI,[3]; [23],0.539
same,Fa,[3]; [23],0.2585
same,Description,"[3]; Compound 1 + Cisplatin, molar ratio 1:81",Synergy (0.3-0.7)
O=C(c1ccc(F)c(F)c1Nc1ccc(I)cc1F)N1CC(O)([C@@H]2CCCCN2)C1 [Cobimetinib],CI,[1]; [24],0.334
same,Fa,[1]; [24],0.3595
same,CI,[1]; [25],0.172
same,Fa,[1]; [25],0.5769
same,CI,[1]; [26],0.165
same,Fa,[1]; [26],0.7439
same,CI,[1]; [27],0.258
same,Fa,[1]; [27],0.8360
same,CI,[1]; [28],0.585
same,Fa,[1]; [28],0.8699
same,CI,[2]; [18],0.806
same,Fa,[2]; [18],0.2247
same,CI,[2]; [4],0.459
same,Fa,[2]; [4],0.6457
same,CI,[2]; [5],0.616
same,Fa,[2]; [5],0.8262
same,Description (combinatory effect by CI),[2]; [8],Synergy (0.3-0.7)
O=c1[nH]c(=O)n([C@H]2C[C@H](O)[C@@H](CO)O2)cc1C(F)(F)F [FTD],CI,[2]; [29],0.716
same,Fa,[2]; [29],0.6654
same,CI,[2]; [30],0.494
same,Fa,[2]; [30],0.8785
same,Description,"[2]; Compound 1 + FTD, molar ratio 1:27",Synergy (0.3-0.7)
same,CI,[3]; [31],0.468
same,Fa,[3]; [31],0.4667
same,CI,[3]; [32],0.676
same,Fa,[3]; [32],0.6009
same,CI,[3]; [33],0.618
same,Fa,[3]; [33],0.7931
same,Description,"[3]; Compound 1 + FTD, molar ratio 1:0.3",Synergy (0.3-0.7)
CC(=O)O[C@H]1C(=O)[C@@]2(C)[C@H]([C@H](OC(=O)c3ccccc3)[C@]3(O)C[C@H](OC(=O)[C@H](O)[C@@H](NC(=O)c4ccccc4)c4ccccc4)C(C)=C1C3(C)C)[C@]1(OC(C)=O)CO[C@@H]1C[C@@H]2O [Paclitaxel],CI,[2]; [34],0.106
same,Fa,[2]; [34],0.4372
same,CI,[2]; [35],0.222
same,Fa,[2]; [35],0.5083
same,CI,[2]; [36],0.307
same,Fa,[2]; [36],0.6577
same,CI,[2]; [37],0.409
same,Fa,[2]; [37],0.7864
same,CI,[2]; [38],0.957
same,Fa,[2]; [38],0.8179
same,CI,[3]; [39],0.690
same,Fa,[3]; [39],0.1066
same,CI,[3]; [40],0.828
same,Fa,[3]; [40],0.1742
same,CI,[3]; [41],0.386
same,Fa,[3]; [41],0.4157
same,CI,[3]; [42],0.366
same,Fa,[3]; [42],0.6114
same,CI,[3]; [43],0.371
same,Fa,[3]; [43],0.7739
same,CI,[3]; [44],0.681
same,Fa,[3]; [44],0.8306
same,Description,"[3]; Compound 1 + Paclitaxel, molar ratio 1:0.03",Synergy (0.3-0.7)
SN-38,CI,[2]; [45],0.750
same,Fa,[2]; [45],0.3061
same,CI,[2]; [46],0.390
same,Fa,[2]; [46],0.6496
same,CI,[2]; [47],0.261
same,Fa,[2]; [47],0.8647
same,CI,[2]; [48],0.536
same,Fa,[2]; [48],0.8972
same,CI,[3]; [49],0.322
same,Fa,[3]; [49],0.2202
same,CI,[3]; [50],0.554
same,Fa,[3]; [50],0.2912
same,CI,[3]; [51],0.621
same,Fa,[3]; [51],0.4442
same,CI,[3]; [52],0.472
same,Fa,[3]; [52],0.6700
same,CI,[3]; [53],0.554
same,Fa,[3]; [53],0.7937
same,CI,[3]; [54],0.310
same,Fa,[3]; [54],0.9240
same,CI,[3]; [55],0.064
same,Fa,[3]; [55],0.9872
